Reference: publication doi:10.1101/2025.04.16.649181, “Design of peptide-based PAC1 antagonists combining molecular dynamics simulations and a biologically relevant cell-based assay” (bioRxiv, 2025)
Positions of bridges follow the written chain, without caps; N, C: chain ends. Non-standard residues stand in square brackets, D forms with d. Residues, ends and D or L forms follow the SMILES beside them. No end group written: not given here. Cha = N[C@@H](CC1CCCCC1)C(=O)O

Legend:
[1] = target: T1, PAC1 (endogenous, mainly PAC1null, SH-SY5Y) (Homo sapiens, UniProt P41586); assay: CBS assay, antagonism of P27-induced cAMP in SY5Y_CBS cells; type: cell-based; details: for antagonist potency vs P6-27: 0.2 nM P27 (EC80); for IC50: IC50 against P27, 0.2 nM P27 (EC80), n = 3, Figure 7C
T1 construct: Neuroblastoma SH-SY5Y cells endogenously xpressing hPAC1 and engineered to express CBS; endogenous in cells
T1 sequence (P41586 21-468): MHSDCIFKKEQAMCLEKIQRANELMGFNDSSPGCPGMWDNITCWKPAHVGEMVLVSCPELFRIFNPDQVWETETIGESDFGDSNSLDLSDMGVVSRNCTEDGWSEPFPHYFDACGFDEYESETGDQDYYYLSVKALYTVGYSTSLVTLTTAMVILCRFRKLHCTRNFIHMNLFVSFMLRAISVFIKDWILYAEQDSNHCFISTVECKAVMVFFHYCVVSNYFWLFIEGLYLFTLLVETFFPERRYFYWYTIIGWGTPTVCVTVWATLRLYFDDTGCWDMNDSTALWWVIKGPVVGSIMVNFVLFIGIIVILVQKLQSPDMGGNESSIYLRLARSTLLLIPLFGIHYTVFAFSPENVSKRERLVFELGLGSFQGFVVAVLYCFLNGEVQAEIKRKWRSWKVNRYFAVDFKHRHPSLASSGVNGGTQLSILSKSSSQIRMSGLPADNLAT
Source text: (§1) A single clone of the SH-SY5Y cell line stably expressing a cAMP biosensor (SY5Y_CBS) was generated as previously described for HEK293_CBS and NS-1_CBS cells, using the retroviral vector pLHCX containing the cAMP biosensor and a hygromycin resistance gene. A HEK293_CBS_hPAC1 cell clone was generated by transducing HEK293_CBS cells with the lentiviral vector pLX304 (GeneCopoeia, Rockville, MD) encoding the human PAC1hop (PAC1; GenBank accession no. BC143679) and a blasticidin resistance gene . Following transduction, cells were selected with the appropriate antibiotics (hygromycin or blasticidin) for 2 weeks. Single-cell clones were subsequently isolated by limiting dilution and assessed for PACAP-induced cAMP production using concentration-response assays.
(§2) The cyclic AMP biosensor (CBS) assay was performed using Gibco CO2-independent medium (ThermoFisher, catalog #18045-088). HEK293_CBS_hPAC1 or SY5Y_CBS cells were seeded in 96-well black/clear-bottom plates (MidSci, Fenton, MO) at a density of 6,000 cells per well and incubated overnight. The following day, the medium in each well was aspirated and replaced with fresh medium containing 1.5 mg/mL D-luciferin potassium salt substrate (Gold Biotechnology, St. Louis, MO) and 500 μM isobutyl-1-methylxanthine (IBMX), followed by incubation at 37 °C for 1 hour. Cells were then pre-treated with antagonists for 10 minutes before the addition of agonists (PACAP or forskolin). Plates were incubated at 37 °C for 1 hour, then brought to room temperature and equilibrated for 30 minutes. Luminescence was measured using a GloMax plate reader (Promega, Madison, WI).
For the high-throughput CBS screening assays, cells were plated at 2,000 (HEK293_CBS_hPAC1) or 3,000 (SY5Y_CBS) cells per well in […] of Gibco CO2-independent medium, in white 1,536-well tissue culture treated plates. After overnight incubation at 37 °C and 5% CO2, […] of luciferin/IBMX solution was added to the wells (final concentrations of 500 μM each) and plates were incubated at 37 °C for 1 hour. SMOLs (22.5 nL) were transferred to the assay plate, using a pintool device (HEK293 screen) or an ECHO acoustic liquid handler (Beckman Coulter, Brea, CA, SY5Y screen), to final concentrations (4 concentrations per compound) between 0.5 and 30 μM and cells were incubated at 37 °C for 1 hour (HEK293 screen) or 10 minutes (SY5Y screen). […] For forskolin counterscreening in SY5Y cells, forskolin instead of peptide was dispensed to the plate at a final concentration of 5 μM.
(§3) GraphPad Prism ver. 9.0 or 10.0 (GraphPad Software Inc, Boston, MA) was used for data analysis. Concentration response curves were created using a four parameter logistic regression model. EC80 and IC50 parameters were obtained using non-linear regression curve fitting tools. EC80 was calculated as the effective concentration of the agonist required to produce 80% of the maximal response. IC50 was calculated as the concentration of the antagonist that produced 50% of the response induced by an agonist (either PACAP or forskolin) in the absence of the antagonist. Seven or eight different concentrations and three technical replicates per concentration were used for curve fitting. All data are presented as mean ± standard error of the mean (SEM).

[2] = target: T1, PAC1 (endogenous, mainly PAC1null, SH-SY5Y); assay: CBS assay, antagonism of P38-induced cAMP in SY5Y_CBS cells; type: cell-based; details: for IC50: three independent experiments; for P38-induced cAMP elevation blocked to: 0.2 nM P38, SY5Y_CBS, n = 3
Source text: as §1, §2, §3

[3] = IC50 against P38 (Figure 9C), 0.2 nM P38, CBS assay, mean ± SEM
[4] = 0.2 nM P38 (EC80), SY5Y_CBS, mean ± SEM, Figure 11B, read-out: IC50 of P6-38 C-terminal mutants in CBS assay

CSCC[C@@H]1NC(=O)[C@@H](NC(=O)[C@H](CCCCN)NC(=O)[C@H](CCCNC(=N)N)NC(=O)[C@H](Cc2ccc(O)cc2)NC(=O)[C@H](CCCNC(=N)N)NC(=O)[C@H](CO)NC(=O)[C@H](Cc2ccc(O)cc2)NC(=O)[C@H](CO)NC(=O)[C@H](CC(=O)O)NC(=O)[C@@H](NC(=O)[C@@H](N)Cc2ccccc2)[C@@H](C)O)CCC(=O)NCCCC[C@@H](C(=O)N[C@@H](CCCCN)C(=O)N[C@@H](Cc2ccc(O)cc2)C(=O)N[C@@H](CC(C)C)C(=O)N[C@@H](C)C(=O)N[C@@H](C)C(=O)N[C@H](C(=O)N[C@@H](CC(C)C)C(N)=O)C(C)C)NC(=O)[C@H](C(C)C)NC(=O)[C@H](C)NC1=O [P6-27Lb, (c[E16,K20])P6-27] (H-FTDSYSRYRKEMAVKKYLAAVL-NH2; lactam 11-15; N-terminus assumed)
antagonist potency vs P6-27 [1]: did not increase the inhibitory effect of P6-27 | IC50 [1]: > 1000 nM

CSCC[C@@H]1NC(=O)[C@@H](NC(=O)[C@H](CCCCN)NC(=O)[C@H](CCCNC(=N)N)NC(=O)[C@H](Cc2ccc(O)cc2)NC(=O)[C@H](CCCNC(=N)N)NC(=O)[C@H](CO)NC(=O)[C@H](Cc2ccc(O)cc2)NC(=O)[C@H](CO)NC(=O)[C@H](CC(=O)O)NC(=O)[C@@H](NC(=O)[C@@H](N)Cc2ccccc2)[C@@H](C)O)CCC(=O)NCCCC[C@@H](C(=O)N[C@@H](CCCCN)C(=O)N[C@@H](Cc2ccc(O)cc2)C(=O)N[C@@H](CC2CCCCC2)C(=O)N[C@@H](C)C(=O)N[C@@H](C)C(=O)N[C@H](C(=O)N[C@@H](CC(C)C)C(N)=O)C(C)C)NC(=O)[C@H](C(C)C)NC(=O)[C@H](C)NC1=O [P6-27Lbx1, (c[E16,K20], Cha23)P6-27] (H-FTDSYSRYRKEMAVKKY[Cha]AAVL-NH2; lactam 11-15; N-terminus assumed)
antagonist potency vs P6-27 [1]: did not increase the inhibitory effect of P6-27 | IC50 [1]: > 1000 nM

CSCC[C@@H]1NC(=O)[C@@H](NC(=O)[C@H](CCCCN)NC(=O)[C@H](CCCNC(=N)N)NC(=O)[C@H](Cc2ccc(O)cc2)NC(=O)[C@H](CCCNC(=N)N)NC(=O)[C@H](CO)NC(=O)[C@H](Cc2ccc(O)cc2)NC(=O)[C@H](CO)NC(=O)[C@H](CC(=O)O)NC(=O)[C@@H](NC(=O)[C@@H](N)Cc2ccccc2)[C@@H](C)O)CCC(=O)NCCCC[C@@H](C(=O)N[C@@H](CCCCN)C(=O)N[C@@H](Cc2ccc(O)cc2)C(=O)N[C@@H](CC(C)C)C(=O)N[C@@H](C)C(=O)N[C@@H](C)C(=O)N[C@H](C(=O)N[C@@H](CC2CCCCC2)C(N)=O)C(C)C)NC(=O)[C@H](C(C)C)NC(=O)[C@H](C)NC1=O [P6-27Lbx2, (c[E16,K20], Cha27)P6-27] (H-FTDSYSRYRKEMAVKKYLAAV[Cha]-NH2; lactam 11-15; N-terminus assumed)
antagonist potency vs P6-27 [1]: did not increase the inhibitory effect of P6-27 | IC50 [1]: > 1000 nM

CSCC[C@H](NC(=O)[C@H](CCC(N)=O)NC(=O)[C@H](CCCCN)NC(=O)[C@H](CCCNC(=N)N)NC(=O)[C@H](Cc1ccc(O)cc1)NC(=O)[C@H](CCCNC(=N)N)NC(=O)[C@H](CO)NC(=O)[C@H](Cc1ccc(O)cc1)NC(=O)[C@H](CO)NC(=O)[C@H](CC(=O)O)NC(=O)[C@@H](NC(=O)[C@@H](N)Cc1ccccc1)[C@@H](C)O)C(=O)N[C@@H](C)C(=O)N[C@H](C(=O)N[C@@H](CCCCN)C(=O)N[C@@H](CCCCN)C(=O)N[C@@H](Cc1ccc(O)cc1)C(=O)N[C@@H](CC(C)C)C(=O)N[C@@H](C)C(=O)N[C@H]1CCC(=O)NCCCC[C@@H](C(=O)N[C@@H](CCCNC(=N)N)C(=O)N[C@@H](Cc2ccc(O)cc2)C(=O)N[C@@H](CCCCN)C(=O)N[C@@H](CCC(N)=O)C(=O)N[C@@H](CCCNC(=N)N)C(=O)N[C@H](C(=O)N[C@@H](CCCCN)C(=O)N[C@@H](CC(N)=O)C(=O)N[C@@H](CCCCN)C(N)=O)C(C)C)NC(=O)CNC(=O)[C@H](CC(C)C)NC(=O)[C@H](C(C)C)NC1=O)C(C)C [P6-38Lb, (c[E25,K29])P6-38] (H-FTDSYSRYRKQMAVKKYLAEVLGKRYKQRVKNK-NH2; lactam 20-24)
IC50 [2, 3]: 219 ± 28 nM

CSCC[C@H](NC(=O)[C@H](CCC(N)=O)NC(=O)[C@H](CCCCN)NC(=O)[C@H](CCCNC(=N)N)NC(=O)[C@H](Cc1ccc(O)cc1)NC(=O)[C@H](CCCNC(=N)N)NC(=O)[C@H](CO)NC(=O)[C@H](Cc1ccc(O)cc1)NC(=O)[C@H](CO)NC(=O)[C@H](CC(=O)O)NC(=O)[C@@H](NC(=O)[C@@H](N)Cc1ccccc1)[C@@H](C)O)C(=O)N[C@@H](C)C(=O)N[C@H](C(=O)N[C@@H](CCCCN)C(=O)N[C@@H](CCCCN)C(=O)N[C@@H](Cc1ccc(O)cc1)C(=O)N[C@@H](CC1CCCCC1)C(=O)N[C@@H](C)C(=O)N[C@H]1CCC(=O)NCCCC[C@@H](C(=O)N[C@@H](CCCNC(=N)N)C(=O)N[C@@H](Cc2ccc(O)cc2)C(=O)N[C@@H](CCCCN)C(=O)N[C@@H](CCC(N)=O)C(=O)N[C@@H](CCCNC(=N)N)C(=O)N[C@H](C(=O)N[C@@H](CCCCN)C(=O)N[C@@H](CC(N)=O)C(=O)N[C@@H](CCCCN)C(N)=O)C(C)C)NC(=O)CNC(=O)[C@H](CC(C)C)NC(=O)[C@H](C(C)C)NC1=O)C(C)C [P6-38Lbx1, (c[E25,K29], Cha23)P6-38] (H-FTDSYSRYRKQMAVKKY[Cha]AEVLGKRYKQRVKNK-NH2; lactam 20-24)
IC50 [2, 3]: 61 ± 12 nM

FTDSYSRYRKQMAVKKYLAAVL-NH2 [P6-27]
P38-induced cAMP elevation blocked to ([2]; P6-27 at 1 μM): 50% | P38-induced cAMP elevation blocked to ([2]; until the highest concentration tested (10 μM)): ~ 50%

FTDSYSRYRKQMAVKKYLAAVLG-NH2 [P6-28]
IC50 ([2]; 0.2 nM P38 (EC80), SY5Y_CBS, Figure 11B, read-out: IC50 of P6-38 C-terminal mutants in CBS assay): > 1000 nM

FTDSYSRYRKQMAVKKYLAAVLGKRYK-NH2 [P6-32]
IC50 [2, 4]: 72 ± 17 nM

FTDSYSRYRKQMAVKKYLAAVLGKRYKQRVK-NH2 [P6-36]
IC50 [2, 4]: 90 ± 13 nM
